Reference: patent US4001228A, “2-Thiol-4,5-diphenyloxazole S-derivatives” (Serono Laboratories, Inc., priority 1974, dated 1977)
Where a name gives a salt, the structure may show the parent alone. Read-outs that look alike come from different tables or passages of the source.

Legend:
[1] = test system: ADP induced platelet aggregation (platelet-rich rabbit plasma); assay: ADP (5 μg/ml) induced platelet aggregation in vitro on platelet-rich plasma; assay type: cell-based; conditions: Oryctolagus cuniculus, 10 min
Procedure: (§1) The inhibitory activity on platelet aggregation was determined for the same compounds in vitro on platelet-rich rabbit plasma prepared by collecting the blood in a plastic centrifuge tube containing enough 3.8% sodium citrate to give a concentration of 0.38 g/100 ml when mixed with the blood, and then centrifuging at 100 × g for 20 minutes.
(§2) 1 ml aliquots of the thus prepared plasma were placed in a Platelet Aggregation Meter connected to a potentiometric recorder and tested according to Born, Nature (London), 194, 927 (1962).
(§3) The plasma-test compound mixtures were incubated for 10 min. at 37° C before addition of the aggregating agents, that is, Adenosine Diphosphate (ADP) or collagen.
(§4) The curves were read following the method described by O'Brien et al., Thromb. Diath. Haemorrhag. 16, 751 (1966). Slope and maximum transmission were recorded and expressed as % change with respect to controls. In the case of collagen induced platelet aggregation, the delay time ("reaction time") in seconds from the addition of the aggregating agent to the inflection of the curve was also measured and expressed as % change as above. For comparison purposes, acetylsalicylic acid (ASA) was also tested in the same conditions as the test compounds.
(§5) Negative figures in slope and maximum transmission % changes indicate antiaggregating activity. Positive figures in delay time % changes indicate that the compound is effective in prolonging the reaction time in the collagen induced platelet aggregation test.

[2] = test system: collagen induced platelet aggregation (platelet-rich rabbit plasma); assay: Collagen (40 μg/ml) induced platelet aggregation in vitro on platelet-rich plasma; assay type: cell-based; conditions: Oryctolagus cuniculus, 10 min
Procedure: as §1, §2, §3, §4, §5

[3] = Acute toxicity determined as approximate LD50; assay type: in vivo; conditions: mouse, in vivo, ip; three groups of three "Swiss" mice
Procedure: (§6) The acute toxicity of some of the compounds of formula (I) was determined as approximate LD50, according to the method described in Acta Pharmacol, et toxicol, 25, 345 (1967), on three groups of three "Swiss" mice.

"Swiss" mice = assay: Acute toxicity determined as approximate LD50; assay type: in vivo; conditions: i.p.; three groups of three "Swiss" mice
Procedure: as §6

[4] = read-out: Maximum transmission, % change

Work on `CC(=O)Oc1ccccc1C(=O)O` [ASA, acetylsalicylic acid, reference compound] yielded an inhibition at 100 µg/mL [1, 4] of 13.2%, an inhibition at 100 µg/mL ([1]; read-out: Slope, % change) of 17.4% and an inhibition at 1.25 µg/mL [2, 4] of 15.2%. The inhibition at 1.25 µg/mL ([2]; read-out: Slope, % change) was 22.1%.

In the case of `O=C(O)CSc1nc(-c2ccccc2)c(-c2ccccc2)o1` [Example 2, S-(4,5-DIPHENYLOXAZOL-2-yl)-MERCAPTOACETIC ACID], the LD50 [3] is reported as roughly 220 mg/kg.

With `O=C(O)CSc1nc(-c2ccccc2)c(-c2ccccc2)o1` [Example 3, 2-DIMETHYLAMINOETHANOL SALT OF S-(4,5-DIPHENYLOXAZOL-2-YL)-MERCAPTOACETIC ACID] the water solubility (Solubility (qualitative)) was “water-soluble” and the “Approximate LD50” value ("Swiss" mice) was roughly 220 mg/kg.

In the case of `O=C(O)CSc1nc(-c2ccccc2)c(-c2ccccc2)o1` [Example 4, METHYLAMINOETHANOL SALT OF S-(4,5-DIPHENYLOXAZOL-2-YL)-MERCAPTOACETIC ACID], the “Approximate LD50” value ("Swiss" mice) is reported as roughly 220 mg/kg.

With `CN(C)CCOC(=O)CSc1nc(-c2ccccc2)c(-c2ccccc2)o1` [Example 5, 2-DIMETHYL[…]-(4,5-DIPHENYLOXAZOL-2-YL)-MERCAPTOACETATE] the water solubility (Solubility (qualitative)) was “water soluble”, the inhibition at 100 µg/mL [1, 4] was 45.2% and the inhibition at 100 µg/mL ([1]; read-out: Slope, % change) was 47.2%. The LD50 [3] was roughly 220 mg/kg, the inhibition at 1.25 µg/mL [2, 4] was 67.7% and the inhibition at 1.25 µg/mL ([2]; read-out: Slope, % change) was 72.5%.

Work on `NC(=O)CSc1nc(-c2ccccc2)c(-c2ccccc2)o1` [Example 9, S-(4,5-DIPHENYLOXAZOL-2-YL)-MERCAPTOACETAMIDE] yielded an inhibition at 100 µg/mL ([1]; ADP 5 μg/ml, compound 100 μg/ml, 10 min incubation at 37° C, change with respect to controls, negative = antiaggregating, read-out: Maximum transmission, % change) of 6.6%, an inhibition at 100 µg/mL ([1]; ADP 5 μg/ml, compound 100 μg/ml, 10 min incubation at 37° C, change with respect to controls, negative = antiaggregating, read-out: Slope, % change) of 7.1% and an LD50 [3] of roughly 1200 mg/kg. The inhibition at 1.25 µg/mL ([2]; collagen 40 μg/ml, compound 1.25 μg/ml, 10 min incubation at 37° C, change with respect to controls, negative = antiaggregating, read-out: Maximum transmission, % change) was 12.3% and the inhibition at 1.25 µg/mL ([2]; collagen 40 μg/ml, compound 1.25 μg/ml, 10 min incubation at 37° C, change with respect to controls, negative = antiaggregating, read-out: Slope, % change) was 18.4%.
